This is an account of results in patent US10233195B2, “Anti-fibrotic pyridinones” (InterMune, Inc., priority 2014, dated 2019).

For this test, the system named is TGF-b induced Endothelin-1 production. The experiment in a line: ET-1 assay: inhibitory effect on TGF-b induced endothelin-1 production. In kind it is cell-based. To be noted: Homo sapiens, Fibroblast; fibroblasts, stimulant (TGFb, serum, LPA etc), ET-1 in media by ELISA, 4-parameter fit. The procedure:
Assay of Inhibitory Effect on TGF-b Induced Endothelin-1 Production
Fibroblasts (primary human lung and dermal, HFL-1, 3T3 etc) are seeded in 96-well plates at ˜15000 cells/well and serum starved for 0-48 hours. After media exchange, compounds serially diluted in DMSO are added to the cells. After a brief incubation of ˜30 min, stimulants (TGFb, serum, LPA etc) are added followed by further incubation for 16-48 hours. Media is then harvested and stored frozen in plate format for later endothelin-1 (ET-1) determination by ELISA. Toxicity measurements are made using the ATPlite kit (Perkin-Elmer). ET-1 is quantified using an ELISA kit (R&D Systems). The amount of ET-1 produced in the assay wells are back-calculated using the ELISA standard. The ability of a compound to inhibit ET-1 production is typically analyzed by fitting dose-response curves to a 4-parameter logistic function to obtain an EC50 value. A measure of cytotoxicity (CC50) is likewise reported from the same experiment using the ATPlite data.
Compounds of some embodiments were prepared according to synthetic methods described herein and assay data obtained for EC50 against ET-1. The assay data obtained is presented in Table 2, in which A=less than 50 μM, B=greater than or equal to 50 μM and less than or equal to 200 μM; and C=greater than 200 μM.

In the case of `Cn1cc(-c2cn(-c3ccc(Cl)cc3)c(=O)c3nccnc23)cn1` [Compound 397], the EC50 was more than 200 µM.

Molecule `Cc1cc(=O)n(-c2ccc(OC(F)(F)F)cc2)cc1-c1nnnn1C` [Compound 257] gave an EC50 of more than 200 µM.

Take `COC(=O)Nc1cc(=O)n(-c2ccc(OC(F)(F)F)cc2)cc1-c1ccc(F)cc1` [Compound 111]: the EC50 is more than 200 µM.

In turn, `O=c1c2c(c(-c3cccc(F)c3)cn1-c1ccc(OC(F)(F)F)cc1)CCCC2` [Compound 34] yielded an EC50 of less than 50 µM.

Molecule `COc1cccc(-n2cc(-c3cccc(Cl)c3)ccc2=O)c1` [Compound 319] registered an EC50 of less than 50 µM.

Molecule `CCc1cc(=O)n(-c2ccc(OC(F)(F)F)cc2)cc1-c1ccc(F)cc1` [Compound 199] returned an EC50 of 50 to 200 µM.

The molecule `CC(=O)c1ccc(=O)n(-c2cccc(C(F)(F)F)c2)c1` [Compound 11] displayed an EC50 of more than 200 µM.

Regarding `CCOc1ccc(CNc2cc(=O)n(-c3ccc(OCC)cc3C)cc2-c2cnn(C)c2)c(C)c1` [Compound 706], the EC50 is less than 50 µM.

`Cc1cc(=O)n(-c2ccc(Cl)cc2)cc1-c1ccc2ocnc2c1` [Compound 422]: the EC50 was more than 200 µM.

`O=c1ccc(C(F)(F)F)cn1-c1cccc(F)c1` [Compound 274] had an EC50 of more than 200 µM.

As for `Cc1cc(C)c(=O)n(-c2ccccc2)c1` [Compound 349], the EC50 is more than 200 µM.

Consider `Cc1cc(=O)n(-c2ccc3c(c2)OCO3)cc1-c1cnn(C)c1` [Compound 223], for which the EC50 was more than 200 µM.

As for `Cc1cc(=O)n(-c2ccc3c(c2)OCCO3)cc1-c1cnn(C)c1` [Compound 222], the EC50 is more than 200 µM.

Turning to `COc1ccc(-c2ccc(=O)n(-c3cncnc3)c2)cc1` [Compound 311], the EC50 was more than 200 µM.

`Cc1n[nH]c(C)c1-c1ccc(=O)n(-c2cccc(C(F)(F)F)c2)c1` [Compound 384] showed an EC50 of 50 to 200 µM.

`Cc1ccc(=O)n(-c2ccccc2)n1` [Compound 359] came in with an EC50 of more than 200 µM.

As to `Cc1nc2c(=O)n(-c3ccc(OC(F)(F)F)cc3)cc(-c3ccc(F)cc3)c2o1` [Compound 568], the EC50 was more than 200 µM.

Molecule `CC(C)c1cc(=O)n(-c2ccc(OC(F)(F)F)cc2)cc1-c1ccc(F)cc1` [Compound 200] yielded a half-maximal effective concentration (EC50) of 50 to 200 µM.

On to `Cc1cc(=O)n(-c2ccc(OC(F)(F)F)cc2)cc1-c1nnn(C)n1` [Compound 256], for which the EC50 was more than 200 µM.

`CCn1nnc2c(=O)[nH]cc(-c3cnn(C)c3)c21` [Compound 622] gave an EC50 of more than 200 µM.

`CC(C)n1cc(-c2cn(-c3ccc(OC(F)(F)F)cc3)c(=O)c3c2ncn3C)cn1` [Compound 673] displayed an EC50 of less than 50 µM.

In turn, `Cc1cc(=O)n(-c2ccc(Cl)cc2)cc1-c1ccc(F)cc1` [Compound 181] returned an EC50 of more than 200 µM.

For `O=c1c2c(ccn2Cc2ccccc2)c(-c2ccc(F)cc2)cn1-c1ccc(OC(F)(F)F)cc1` [Compound 392], the EC50 was more than 200 µM.

In the case of `CN1CCN(CCOc2cc(=O)n(-c3ccc(OC(F)(F)F)cc3)cc2-c2cnn(C)c2)CC1` [Compound 152], the EC50 lay within 50 to 200 µM.

`O=c1ccc(C2CCCCC2)cn1-c1ccccc1` [Compound 66] gave an EC50 of 50 to 200 µM.

Turning to `COCCOc1ccc(-n2cc(-c3cnn(C)c3)c(Oc3ccccc3)cc2=O)cc1` [Compound 540], the EC50 was less than 50 µM.

As for `O=c1ccc(-c2ccccc2)cn1-c1cccc(F)c1` [Compound 296], the EC50 was more than 200 µM.

Molecule `Cc1ccc(=S)n(-c2ccc(OC(C)C)cc2)c1` [Compound 334] gave an EC50 of more than 200 µM.

Consider `O=c1ccc(-c2cccc(Cl)c2)cn1-c1ccccc1F` [Compound 324], for which the EC50 was 50 to 200 µM.

In turn, `CCOc1ccc(-n2cc(-c3cnn(C)c3)c3c(c2=O)CCCC3)c(C)c1` [Compound 35] displayed an EC50 of less than 50 µM.

In the case of `Cc1cc(=O)n(-c2ccc3[nH]cnc3c2)cc1-c1cnn(C)c1` [Compound 233], the EC50 is more than 200 µM.

The molecule `Cn1cc(-c2cn(-c3ccc(OC(F)(F)F)cc3)c(=O)cc2Oc2ccccc2F)cn1` [Compound 408] displayed an EC50 of more than 200 µM.

For `Cc1cc(=O)n(-c2ccc3ocnc3c2)cc1-c1cnn(C)c1` [Compound 224], the EC50 was more than 200 µM.

The molecule `Cn1cc(-c2ccc(=O)n(-c3ccc(OC(F)(F)F)cc3)n2)cn1` [Compound 363] came in with an EC50 of more than 200 µM.

In turn, `CCOCCn1ccc2c(-c3cn[nH]c3)cn(-c3ccc(OC(F)(F)F)cc3)c(=O)c21` [Compound 691] returned an EC50 of less than 50 µM.

With `CCn1cc(-c2cn(-c3ccc(OC(F)(F)F)cc3)c(=O)c3c2ncn3CC)cn1` [Compound 670], the EC50 is less than 50 µM.

Consider `O=C(NCc1ccccc1)Nc1cc(=O)n(-c2ccc(OC(F)(F)F)cc2)cc1-c1ccc(F)cc1` [Compound 116], for which the EC50 was more than 200 µM.

As to `O=c1cc(OCCN2CCS(=O)(=O)CC2)c(-c2ccc(F)cc2)cn1-c1ccc(OC(F)(F)F)cc1` [Compound 94], the EC50 is more than 200 µM.

For the molecule `Cc1cc(=O)n(-c2ccccc2)cc1-c1ccc(F)cc1` [Compound 176], the EC50 fell in the range of 50 to 200 µM.

Consider `Cc1n[nH]c(C)c1-c1ccc(=O)n(-c2ccc(Cl)cc2)c1` [Compound 380], for which the half-maximal effective concentration (EC50) was more than 200 µM.

Molecule `Cc1nc2c(=O)n(-c3ccc(OC(F)(F)F)cc3)cc(-c3cn[nH]c3)c2n1C` [Compound 675] yielded an EC50 of less than 50 µM.

In turn, `O=c1cc(OCCN2CCOCC2)c(-c2ccc(F)cc2)cn1-c1ccc(OC(F)(F)F)cc1` [Compound 92] registered an EC50 of 50 to 200 µM.

Take `Cc1nc2c(-c3cnn(Cc4ccccc4)c3)cn(-c3ccc(OC(F)(F)F)cc3)c(=O)c2s1` [Compound 586]: the EC50 was less than 50 µM.

Regarding `Cc1cc(=O)n(-c2cccc(OC(F)(F)F)c2)cc1-c1ccc(F)cc1` [Compound 174], the EC50 is less than 50 µM.

Consider `COc1cccc(-n2cc(Br)ccc2=O)c1` [Compound 266], for which the EC50 is more than 200 µM.

`O=c1c2nccnc2c(-c2cnn(CCO)c2)cn1-c1ccc(OC(F)(F)F)cc1` [Compound 577] showed an EC50 of 50 to 200 µM.

As to `O=c1ccc(-c2cccc(Cl)c2)cn1-c1cccc(C(F)(F)F)c1` [Compound 318], the EC50 was less than 50 µM.

`COCCOc1ccc(-n2cc(-c3ccccc3)c(C)cc2=O)cc1` [Compound 26] gave an EC50 of less than 50 µM.

Molecule `Cc1cc(=O)n(-c2ccc3scnc3c2)cc1-c1cnn(C)c1` [Compound 225] came in with an EC50 of more than 200 µM.

`O=c1c2ccc(C(F)(F)F)nc2c(-c2ccc(F)cc2)cn1-c1ccc(OC(F)(F)F)cc1` [Compound 38] gave a concentration for a half-maximal effect (EC50) of more than 200 µM.

The molecule `Cc1nc2c(=O)n(-c3ccc(OC(F)(F)F)cc3)cc(-c3cnn(C)c3)c2n1C` [Compound 674] registered an EC50 of 50 to 200 µM.

`CN1CCC(Oc2cc(=O)n(-c3ccc(OC(F)(F)F)cc3)cc2-c2cnn(C)c2)CC1` [Compound 151] showed an EC50 of less than 50 µM.

In turn, `O=c1ccc(-c2cccc(Cl)c2)cn1-c1ccncc1` [Compound 323] came in with an EC50 of more than 200 µM.

In the case of `Cn1cc(-c2cn(-c3ccc(C#N)cc3)c(=O)c3c2ccn3C)cn1` [Compound 597], the EC50 is more than 200 µM.

Consider `Cn1cc(-c2cn(-c3ccc(OC(F)(F)F)cc3)c(=O)cc2N2CCCCC2)cn1` [Compound 127], for which the EC50 is more than 200 µM.

The molecule `Cn1cc(-c2c[nH]c(=O)c3[nH]ccc23)cn1` [Compound 612] displayed an EC50 of less than 50 µM.

In the case of `Cn1cc(-c2cn(-c3ccc(OC(F)(F)F)cc3)c(=O)cc2NCc2ccc(C#N)cc2F)cn1` [Compound 527], the EC50 was less than 50 µM.

`O=c1cc(OCCN2CCCC2)c(-c2ccc(F)cc2)cn1-c1ccc(OC(F)(F)F)cc1` [Compound 93] gave a concentration for a half-maximal effect (EC50) of less than 50 µM.

`Cc1cc(=O)n(-c2cccc3c2OCCO3)cc1-c1cnn(C)c1` [Compound 231] returned an EC50 of 50 to 200 µM.

Take `Cn1cc(-c2cn(-c3ccc(OC(F)(F)F)cc3)c(=O)cc2OCc2ccccc2)cn1` [Compound 143]: the EC50 was more than 200 µM.

`O=c1ccc(-c2ccc(F)cc2)nn1-c1ccc(OC(F)(F)F)cc1` [Compound 362] showed an EC50 of more than 200 µM.

As to `COCCOc1ccc(Oc2cc(=O)n(-c3ccc(OC(F)(F)F)cc3)cc2-c2cnn(C)c2)cc1` [Compound 533], the EC50 lay in the range of 50 to 200 µM.

`N#Cc1ccc(-n2cc(-c3cn[nH]c3)c3cc[nH]c3c2=O)cc1` [Compound 608]: the EC50 lay within 50 to 200 µM.

In the case of `Cc1cc(=O)n(-c2ccc(OC(F)(F)F)cc2)cc1-c1cccc2c1N(C)C(=O)CO2` [Compound 427], the EC50 is more than 200 µM.

`Cc1cc(=O)n(-c2ccc(OC(F)(F)F)cc2)cc1-c1ccccc1` [Compound 164] had an EC50 of less than 50 µM.

Molecule `O=c1c2nc[nH]c2c(-c2ccc(F)cc2)cn1-c1ccc(OC(F)(F)F)cc1` [Compound 56] came in with an EC50 of more than 200 µM.

Take `CCOc1ccc(-n2cc(-c3cnn(C)c3)c(NCc3ccncc3)cc2=O)c(C)c1` [Compound 700]: the EC50 was 50 to 200 µM.

`O=c1cc(Oc2ccccc2)c(-c2ccc(F)cc2)cn1-c1ccc(OC(F)(F)F)cc1` [Compound 102]: the EC50 was more than 200 µM.

For the molecule `N#Cc1ccc(-n2cc(-c3cn[nH]c3)c3ncccc3c2=O)cc1` [Compound 581], the EC50 is more than 200 µM.

Consider `Cn1cc(-c2cn(-c3cccc(NC(N)=O)c3)c(=O)cc2Oc2ccccc2)cn1` [Compound 537], for which the EC50 was less than 50 µM.

The molecule `COc1cc(-n2cc(-c3cnn(C)c3)c(C)cc2=O)cc(OC)c1OC` [Compound 221] yielded an EC50 of more than 200 µM.
